Experimental findings from BindingDB's records for doi:10.7270/Q2N014XN (Srmlsc, 2007) are described below.

Each structure is given as a SMILES string.

The target in the experiment is T1, Diphosphomevalonate decarboxylase (Streptococcus pneumoniae serotype 2 (strain D39 / NCTC 7466), UniProt A0A0H2ZN59).
T1 sequence (A0A0H2ZN59 whole entry): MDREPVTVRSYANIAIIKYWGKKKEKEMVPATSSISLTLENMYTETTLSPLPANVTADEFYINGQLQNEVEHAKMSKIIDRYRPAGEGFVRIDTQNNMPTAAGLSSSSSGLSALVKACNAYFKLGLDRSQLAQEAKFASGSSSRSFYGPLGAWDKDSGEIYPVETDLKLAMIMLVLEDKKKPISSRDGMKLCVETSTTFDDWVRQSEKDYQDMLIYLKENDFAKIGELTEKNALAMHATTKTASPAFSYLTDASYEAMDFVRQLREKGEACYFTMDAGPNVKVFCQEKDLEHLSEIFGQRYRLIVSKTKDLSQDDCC
Nature of the experiment: S. pneumoniae DPM-DC inhibitor potency, dose response, biochemical, PK/LDH-coupled NADH fluorescence, hexokinase coupling counter-screen (AID 550). A general note: The purpose of a counterscreen is to sort out artefacts and off-target activity.
A word on the IC50: it is the concentration needed to halve the response being measured. A higher IC50 goes with weaker potency in that assay. The compound `OCCNc1ncnc2c1c(-c1ccccc1)c(-c1ccccc1)n2Cc1ccco1` [2-[[7-(2-furanylmethyl)-5,6-diphenyl-4-pyrrolo[2,3-d]pyrimidinyl]amino]ethanol] had a concentration for half-maximal inhibition (IC50) greater than 10000 µM.
In the case of `CC(C)(O)P(C)(=O)c1ccccc1` (stereo unspecified) [2-[methyl(phenyl)phosphoryl]-2-propanol] it was greater than 10000 µM.
In the case of `Nc1c(C(=O)NCCN2CCOCC2)c2nc3ccccc3nc2n1-c1ccc2c(c1)OCO2` [2-amino-1-(1,3-benzodioxol-5-yl)-N-(2-morpholin-4-ylethyl)pyrrolo[3,2-b]quinoxaline-3-carboxamide] it was 87.4 µM.
In the case of `Nc1c(C(=O)NC2CCCC2)c2nc3ccccc3nc2n1N=Cc1cccnc1` [2-amino-N-cyclopentyl-1-(3-pyridinylmethylideneamino)-3-pyrrolo[3,2-b]quinoxalinecarboxamide] it was 17.1 µM; in that of `Cc1ccc(S(=O)(=O)c2cc3c(=O)n4ccccc4nc3n(CC3CCCO3)c2=N)cc1C` (stereo unspecified) [2-azanylidene-3-(3,4-dimethylphenyl)sulfonyl-1-(oxolan-2-ylmethyl)dipyrido[1,2-d:3',4'-f]pyrimidin-5-one], 43.6 µM; in that of `CCOC(=O)C(Cc1ccccc1)C(=O)Nc1nccs1` (stereo unspecified) [2-benzyl-3-keto-3-(thiazol-2-ylamino)propionic acid ethyl ester], greater than 10000 µM.
For the compound `N#CC(C(=O)NC1CCCCC1)c1nc2ccccc2nc1N1CCCCC1` (stereo unspecified) [2-cyano-N-cyclohexyl-2-(3-piperidin-1-ylquinoxalin-2-yl)acetamide], the half-inhibitory concentration (IC50) was greater than 10000 µM.
`CCOc1ncccc1C(=O)Nc1ccc2c(C)cc(=O)oc2c1` [2-ethoxy-N-(2-keto-4-methyl-chromen-7-yl)nicotinamide] displayed an IC50 greater than 10000 µM.
As to `Cn1c(SCC(=O)N2CCOCC2)nnc1-c1ccc(NC(=O)c2ccccc2F)cc1` [2-fluoranyl-N-[4-[4-methyl-5-(2-morpholin-4-yl-2-oxidanylidene-ethyl)sulfanyl-1,2,4-triazol-3-yl]phenyl]benzamide], the half-maximal inhibitory concentration (IC50) is greater than 10000 µM.
The compound `CCOC(=O)c1c(CC(C)C)csc1NC=O` [2-formamido-4-(2-methylpropyl)-3-thiophenecarboxylic acid ethyl ester] registered an IC50 greater than 10000 µM.
`COc1ccc(-c2nsc3c(N4CCN(C(=O)c5ccco5)CC4)ncnc23)cc1` [2-furanyl-[4-[3-(4-methoxyphenyl)-7-isothiazolo[4,5-d]pyrimidinyl]-1-piperazinyl]methanone] yielded an IC50 of 131 µM.
In the case of `CCOC(=O)c1cc2c(=O)n3cccc(C)c3nc2n(CCc2ccccc2)c1=N` [2-imino-10-methyl-5-oxo-1-(2-phenylethyl)-3-dipyrido[3,4-c:1',2'-f]pyrimidinecarboxylic acid ethyl ester] it was 27.2 µM; in that of `CCOC(=O)c1cc2c(=O)n3ccccc3nc2n(C(C)C)/c1=N\C(=O)c1ccncc1` [2-isonicotinoylimino-1-isopropyl-5-keto-dipyrido[1,2-d:3',4'-f]pyrimidine-3-carboxylic acid ethyl ester], 15.2 µM; in that of `COCCOC(=O)c1c(C)oc2ccc(NS(=O)(=O)c3ccc(F)cc3)cc12` [2-methoxyethyl 5-[(4-fluorophenyl)sulfonylamino]-2-methyl-1-benzofuran-3-carboxylate], greater than 10000 µM.
For `Cc1occc1C(=O)Nc1nnc(C(F)(F)F)s1` [2-methyl-N-[5-(trifluoromethyl)-1,3,4-thiadiazol-2-yl]-3-furamide] the value was greater than 10000 µM; for `CC(C)(C)CC(=O)Nc1nnc(-c2cccs2)s1` [3,3-Dimethyl-N-(5-thiophen-2-yl-[1,3,4]thiadiazol-2-yl)-butyramide], greater than 10000 µM; for `CC(C)c1nc(NCC2CCCO2)c(C#N)c2c1COC(C)(C)C2` (stereo unspecified) [3,3-dimethyl-6-(2-oxolanylmethylamino)-8-propan-2-yl-1,4-dihydropyrano[3,4-c]pyridine-5-carbonitrile], 9.97 µM.
In the case of `Cc1ccc(S(=O)(=O)NCCN2CCOCC2)cc1C` [3,4-Dimethyl-N-(2-morpholin-4-yl-ethyl)-benzenesulfonamide] it was greater than 10000 µM; in that of `COc1ccc(C(=O)NCc2cn3c(C)csc3n2)cc1OC` [3,4-dimethoxy-N-[(3-methyl-6-imidazo[2,1-b]thiazolyl)methyl]benzamide], greater than 10000 µM.
The compound `N#Cc1c(NCCO)nc(NCc2ccccc2)c2c1CCN(Cc1ccccc1)C2` [3-(2-hydroxyethylamino)-7-(phenylmethyl)-1-[(phenylmethyl)amino]-6,8-dihydro-5H-2,7-naphthyridine-4-carbonitrile] had a 50% inhibitory concentration (IC50) of 38.6 µM.
In the case of `COc1ccc(-c2coc3cc(O)ccc3c2=O)cc1OC` [3-(3,4-dimethoxyphenyl)-7-hydroxy-1-benzopyran-4-one] it was 19 µM.
For `Clc1c(-c2nnc3n2CCC3)sc2ccccc12` [3-(3-chloranyl-1-benzothiophen-2-yl)-6,7-dihydro-5H-pyrrolo[2,1-c][1,2,4]triazole] the value was greater than 10000 µM; for `COc1ccc(-n2nc(C(=O)NCc3ccco3)c3c4ccccc4n(C)c3c2=O)cc1Cl` [3-(3-chloranyl-4-methoxy-phenyl)-N-(furan-2-ylmethyl)-5-methyl-4-oxidanylidene-pyridazino[4,5-b]indole-1-carboxamide], 15.1 µM; for `N#Cc1c(NCCCO)nc(NCc2ccccc2)c2c1CCN(Cc1ccccc1)C2` [3-(3-hydroxypropylamino)-7-(phenylmethyl)-1-[(phenylmethyl)amino]-6,8-dihydro-5H-2,7-naphthyridine-4-carbonitrile], 39.1 µM.
For `O=C(Nc1ccc(F)cc1)N(CCCN1CCOCC1)Cc1cc2cc3c(cc2[nH]c1=O)OCO3` [3-(4-fluorophenyl)-1-[3-(4-morpholinyl)propyl]-1-[(6-oxo-5H-[1,3]dioxolo[4,5-g]quinolin-7-yl)methyl]urea] the value was 17.6 µM.
Regarding `Cc1ccc(NC(=O)N(CCCN2CCOCC2)Cc2cc3cc4c(cc3[nH]c2=O)OCO4)cc1` [3-(4-methylphenyl)-1-(3-morpholin-4-ylpropyl)-1-[(6-oxidanylidene-5H-[1,3]dioxolo[4,5-g]quinolin-7-yl)methyl]urea], half-maximal inhibition (IC50) was put at 45.6 µM.
In the case of `O=C(O)CCn1nnc(-c2cccs2)n1` [3-(5-Thiophen-2-yl-tetrazol-2-yl)-propionic acid] it was greater than 10000 µM; in that of `Nc1c(C(=O)NC2CCCC2)sc2nc(-c3cccs3)ccc12` [3-Amino-6-thiophen-2-yl-thieno[2,3-b]pyridine-2-carboxylic acid cyclopentylamide], 172 µM; in that of `Cc1c(C(=O)OCC(C)(C)CN(C)C)oc2ccccc12` [3-Methyl-benzofuran-2-carboxylic acid 3-dimethylamino-2,2-dimethyl-propyl ester], greater than 10000 µM.
In the case of `COc1ccc(-c2cc(C(F)(F)F)nc(SCCC(=O)Nc3cc(C)on3)n2)cc1` [3-[4-(4-Methoxy-phenyl)-6-trifluoromethyl-pyrimidin-2-ylsulfanyl]-N-(5-methyl-isoxazol-3-yl)-propionamide] it was greater than 10000 µM; in that of `CCOc1nc(-c2ccccc2)ccc1-c1noc(-c2ccc(OC)c(OC)c2)n1` [3-[5-(3,4-Dimethoxy-phenyl)-[1,2,4]oxadiazol-3-yl]-2-ethoxy-6-phenyl-pyridine], greater than 10000 µM.
